# Test results as given in article PMC10165273, “Itch receptor MRGPRX4 interacts with the receptor activity–modifying proteins” (The Journal of Biological Chemistry, 2023).
# “And” between values parts separate entries of the source, which are not always exact repeats. Identical values can stand only once.
# Experiments:
# MRGPRX4 = target: T1, MRGPRX4 (Homo sapiens, UniProt Q96LA9); assay: IP1 accumulation HTRF assay, MRGPRX4; format: cell-based; parameters: key to IP1 Basal / IP1 accumulation with YM (Figure 1c) / response to agonist, MRGPRX4 / IP1 accumulation: % IP1: unstimulated mock-transfected = 0%, fully stimulated MRGPRX4 = 100%
# T1 construct: expressed in transfected cells; host or cells: HEK293T
# Experimental: (§1) HEK293T cells were transfected with 1 pg/cell of MRGPRX4 DNA, and the amount of DNA was kept constant at 2 pg/cell with pcDNA3.1(+) empty vector, unless otherwise specified. Twenty four hours after transfection, IP1 assay was performed as previously described ([51]). When applicable, cells were treated with 1 μM YM254890 (YM) or different concentrations of U73122 for 1 h prior to addition of agonist or buffer. After incubation for 2 h, HTRF reagents and IP1 calibration standards were added and incubated for 2 h in the dark at room temperature. Time-resolved fluorescence signals were read on the BioTek Synergy NEO-TRF Hybrid multi-mode reader (BioTek Instruments). All data were carried out in three independent experiments with three technical replicate each.
# For characterization of the Tet-On Nluc-HT7-MRGPRX4-GFP10-1D4 construct, HEK293T cells were transfected as previously described with some modifications. Dox dose-response of NLuc-HT7-MRGPRX4-GFP10-1D4 DNA titration was assayed by transfecting HEK293T cells with either 1 or 2 pg/cell of NLuc-HT7-MRGPRX4-GFP10-1D4 construct. Receptor expression was induced 4 h after transfection with addition of different concentrations of dox for 20 h. For the RAMP DNA titration assay, cells were cotransfected with a constant amount of 1 pg/cell of NLuc-HT7-MRGPRX4-GFP10-1D4 DNA and 1, 0.75, 0.5, or 0 pg/cell of each HA-RAMP-OLLAS with the homogenous transfection method. Four hours after transfection, receptor expression was induced with addition of 1000 ng/ml dox. Twenty hours after induction, IP1 assay was performed.
# (§2) Data reduction, standard calibration, and transformation of HTRF data were performed as previously described ([51]). Normalized IP1 values were calculated relative to the unstimulated mock-transfected cells (set to 0%) and fully stimulated MRGPRX4 (alone if applicable) (set to 100%).
# MRGPRX4 + RAMP3 [1] = target: T2, MRGPRX4 + RAMP3 (Homo sapiens, UniProt Q96LA9); assay: IP1 accumulation, MRGPRX4 coexpressed with RAMP3; format: cell-based; parameters: key: % IP1; unstimulated mock = 0%, fully stimulated MRGPRX4 = 100%; details: Figure 4c-f; agonist 100µM; X4:ramp3 1:2; MRGPRX4 = 100
# T2 construct: expressed in transfected cells; host or cells: HEK293T
# MRGPRX4 + RAMP2 = target: T3, MRGPRX4 + RAMP2 (Homo sapiens, UniProt Q96LA9); assay: IP1 accumulation, MRGPRX4 coexpressed with RAMP2; format: cell-based; parameters: key to response to agonist, X4:ramp2.I:2: % IP1: mock-transfected unstimulated = 0%, fully stimulated MRGPRX4 = 100%; key to IP1 Basal / response to agonist, X4:ramp2.I:0.25 / response to agonist, X4:ramp2.I:0.5 / response to agonist, X4:ramp2.I:1: % IP1; unstimulated mock = 0%, fully stimulated MRGPRX4 = 100%; details: Figure 4c-f, agonist 100µM, MRGPRX4 = 100
# T3 construct: expressed in transfected cells; host or cells: HEK293T
# Experimental: as §1
# (§3) For RAMP DNA titration assay, HEK293T cells were cotransfected with a constant amount of 1 pg/cell of FLAG-MRGPRX4-GFP10-1D4 to which a serial dilution of 1, 0.75, 0.5, 0.25, or 0 pg/cell of each HA-RAMP-OLLAS was added. For a homogenous transfection of MRGPRX4, a master mix of MRGPRX4 DNA was made prior to addition of the RAMP DNA. […]
# as §2
# MRGPRX4 + RAMP3 [2] = target: T2, MRGPRX4 + RAMP3; assay: IP1 accumulation, MRGPRX4 coexpressed with RAMP3; format: cell-based; parameters: key to IP1 Basal / response to agonist, X4:ramp3.I:0.25 / response to agonist, X4:ramp3.I:0.5 / response to agonist, X4:ramp3.I:1: % IP1; unstimulated mock = 0%, fully stimulated MRGPRX4 = 100%; details: Figure 4c-f, agonist 100µM, MRGPRX4 = 100
# Experimental: as §1, §3, §2
# [3] = test system: mock-transfected HEK293T cells; assay: IP1 accumulation, mock-transfected cells; format: cell-based, human; parameters: IP1 Basal / IP1 span / IP1 Emax / IP1 accumulation, dose-response (Figure 1a) / IP1 accumulation with YM (Figure 1c) / IP1 accumulation: unit not given here; details: pcDNA (mock), individual replicates
# Experimental: as §1
# Validation of CALCRL constructs was assayed by cotransfecting HEK293T cells with different tagged versions of CALCRL alone or with each RAMP and with the promiscuous Gqs5 Gq chimera protein, at a respective DNA ratio of 1:1:0.5. Gqs5 is an engineered Gq protein containing the last five amino acid residues of Gs, which allows Gs-coupled GPCRs to signal through Gq downstream signaling pathways ([55]). The homogenous transfection method described above was used for all DNA mixes. CALCRL:RAMP2:Gqs5-transfected cells served as positive control for RAMP functionality.
# as §2
# MRGPRX4 + RAMP1 = target: T4, MRGPRX4 + RAMP1 (Homo sapiens, UniProt Q96LA9); assay: IP1 accumulation, MRGPRX4 coexpressed with RAMP1; format: cell-based; parameters: key to IP1 Basal / response to agonist, X4:ramp1.I:1 / response to agonist, X4:ramp1.I:2 / response to agonist, X4:ramp1.I:0.25 / response to agonist, X4:ramp1.I:0.5: % IP1; unstimulated mock = 0%, fully stimulated MRGPRX4 = 100%; details: Figure 4c-f, agonist 100µM, MRGPRX4 = 100
# T4 construct: expressed in transfected cells; host or cells: HEK293T
# Experimental: as §1
# For a homogenous transfection of MRGPRX4, a master mix of MRGPRX4 DNA was made prior to addition of the RAMP DNA. […]
# as §2
# T2 sequence (Q96LA9 whole entry): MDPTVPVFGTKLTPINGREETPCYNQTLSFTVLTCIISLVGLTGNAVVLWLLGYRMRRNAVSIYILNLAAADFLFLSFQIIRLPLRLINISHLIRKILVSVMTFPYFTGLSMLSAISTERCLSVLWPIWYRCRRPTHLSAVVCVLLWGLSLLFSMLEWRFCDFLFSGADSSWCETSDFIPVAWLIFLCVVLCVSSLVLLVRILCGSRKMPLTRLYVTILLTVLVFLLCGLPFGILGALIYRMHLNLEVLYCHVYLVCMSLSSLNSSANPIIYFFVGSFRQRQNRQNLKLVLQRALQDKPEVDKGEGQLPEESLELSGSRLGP
# T3 sequence (Q96LA9 whole entry): as above
# T4 sequence (Q96LA9 whole entry): as above
# T1 sequence (Q96LA9 whole entry): as above
structure (smiles),measurement,setting,value
"C[C@H](CCC(=O)O)[C@H]1CC[C@H]2[C@@H]3[C@@H](O)C[C@@H]4C[C@H](O)CC[C@]4(C)[C@H]3CC[C@]12C [UDCA, ursodeoxycholic acid]",activation at 33.333 µM,"MRGPRX4; 2 h, log [agonist] (M) -4.47712, MRGX4-transfected, individual replicates, read-out: IP1 accumulation, dose-response (Figure 1a)",16.7%
same,activation at 11.111 µM,"MRGPRX4; 2 h, log [agonist] (M) -4.95424, MRGX4-transfected, individual replicates, read-out: IP1 accumulation, dose-response (Figure 1a)",14.8%
same,activation at 1.2346 µM,"MRGPRX4; 2 h, log [agonist] (M) -5.90849, MRGX4-transfected, individual replicates, read-out: IP1 accumulation, dose-response (Figure 1a)",12.9%
same,activation at 0.4115 µM,"MRGPRX4; 2 h, log [agonist] (M) -6.38561, MRGX4-transfected, individual replicates, read-out: IP1 accumulation, dose-response (Figure 1a)",12.7%
same,activation at 0.13717 µM,"MRGPRX4; 2 h, log [agonist] (M) -6.86273, MRGX4-transfected, individual replicates, read-out: IP1 accumulation, dose-response (Figure 1a)",12.1%
same,"response to agonist, MRGPRX4","MRGPRX4; Figure 4c-f, agonist 100µM, MRGPRX4 alone (reference = 100)",100
same,IP1 Basal,"MRGPRX4; MRGPRX4 (Fig. 1A), HEK293T, normalized to 100 μM nateglinide",13.66
same,"response to agonist, X4:ramp3.I:2",MRGPRX4 + RAMP3 [1],54.7688 and 68.6572
same,"response to agonist, X4:ramp2.I:0.25",MRGPRX4 + RAMP2; X4:ramp2 1:0.25,79.4398 and 88.1338
same,"response to agonist, X4:ramp2.I:0.5",MRGPRX4 + RAMP2; X4:ramp2 1:0.5,67.697 and 77.1393
same,"response to agonist, X4:ramp2.I:1",MRGPRX4 + RAMP2; X4:ramp2 1:1,40.116 and 40.4903
same,"response to agonist, X4:ramp2.I:2",MRGPRX4 + RAMP2; X4:ramp2 1:2,13.5988 and 14.044
same,"response to agonist, X4:ramp3.I:0.25",MRGPRX4 + RAMP3 [2]; X4:ramp3 1:0.25,86.9905 and 87.7685
same,"response to agonist, X4:ramp3.I:0.5",MRGPRX4 + RAMP3 [2]; X4:ramp3 1:0.5,74.5043 and 88.6761
same,"response to agonist, X4:ramp3.I:1",MRGPRX4 + RAMP3 [2]; X4:ramp3 1:1,78.3418 and 68.7873
same,"IP1 accumulation, dose-response (Figure 1a)",[3]; log [agonist] (M) -4,0.4812 and 0.4346 and 0.8349 and -0.1011 and 0.2178 and -0.3214 and 0.5013 and -0.2736 and -1.513 and -0.6571 and 0.03201 and -0.9921
same,"IP1 accumulation, dose-response (Figure 1a)",[3]; log [agonist] (M) -4.95424,0.8578 and 0.7057 and 0.8792 and 0.1679 and 0.2632 and -0.1306 and 0.2729 and -0.3135 and 0.01077 and -0.3984 and 1.094 and -0.3997
same,"IP1 accumulation, dose-response (Figure 1a)",[3]; log [agonist] (M) -5.90849,0.6444 and 0.5533 and 0.8424 and 0.3166 and 0.4567 and -0.2351 and 0.4796 and -0.05346 and 0.7094 and 0.5317 and 1.212 and 0.8514
same,"IP1 accumulation, dose-response (Figure 1a)",[3]; log [agonist] (M) -6.86273,1.003 and 1.057 and 1.14 and 0.6057 and 0.714 and 0.2582 and 0.7883 and 0.3494
same,"response to agonist, X4:ramp1.I:0.25",MRGPRX4 + RAMP1; X4:ramp1 1:0.25,100.75 and 106.142
same,"response to agonist, X4:ramp1.I:0.5",MRGPRX4 + RAMP1; X4:ramp1 1:0.5,100.618 and 106.983
same,"response to agonist, X4:ramp1.I:1",MRGPRX4 + RAMP1; X4:ramp1 1:1,95.1306 and 98.4249
same,"response to agonist, X4:ramp1.I:2",MRGPRX4 + RAMP1; X4:ramp1 1:2,83.6233 and 101.678
